Results published in BigSolDB 2.1.

CC(=O)N[C@@H](C=O)[C@@H](O)[C@H](O)[C@H](O)CO
solubility (mole fraction)
Settings | 283.15 K | 288.15 K | 293.15 K | 298.15 K | 303.15 K | 308.15 K | 313.15 K
in acetone | 4.1e-05 | 7.2e-05 | 8.7e-05 | 0.000115 | 0.000161 | 0.000193 | 0.000241
in ethanol | 0.000166 | 0.000223 | 0.000242 | 0.000268 | 0.000313 | 0.000342 | 0.000382
in methanol | 0.000634 | 0.0007 | 0.000808 | 0.000907 | 0.00109 | 0.00136 | 0.00157
in n-propanol | 7.3e-05 | 8.5e-05 | 0.000115 | 0.000166 | 0.000241 | 0.000324 | 0.000392
in water | 0.0219 | 0.0236 | 0.0257 | 0.028 | 0.0302 | 0.0324 | 0.0344
